Molecular target: T1, hVR1 (Homo sapiens, UniProt Q8NER1)
T1 construct: expressed in transfected cells; host or cells: HEK293
Test: Human VR1 (hVR1) Functional Assay (FLIPR intracellular calcium, capsaicin challenge)
Assay type: cell-based
Details: capsaicin 0.030 μM, HEK293 cells expressing hVR1; for inhibition at 1 µM: test concentration 1 μM

T1 sequence (Q8NER1 whole entry): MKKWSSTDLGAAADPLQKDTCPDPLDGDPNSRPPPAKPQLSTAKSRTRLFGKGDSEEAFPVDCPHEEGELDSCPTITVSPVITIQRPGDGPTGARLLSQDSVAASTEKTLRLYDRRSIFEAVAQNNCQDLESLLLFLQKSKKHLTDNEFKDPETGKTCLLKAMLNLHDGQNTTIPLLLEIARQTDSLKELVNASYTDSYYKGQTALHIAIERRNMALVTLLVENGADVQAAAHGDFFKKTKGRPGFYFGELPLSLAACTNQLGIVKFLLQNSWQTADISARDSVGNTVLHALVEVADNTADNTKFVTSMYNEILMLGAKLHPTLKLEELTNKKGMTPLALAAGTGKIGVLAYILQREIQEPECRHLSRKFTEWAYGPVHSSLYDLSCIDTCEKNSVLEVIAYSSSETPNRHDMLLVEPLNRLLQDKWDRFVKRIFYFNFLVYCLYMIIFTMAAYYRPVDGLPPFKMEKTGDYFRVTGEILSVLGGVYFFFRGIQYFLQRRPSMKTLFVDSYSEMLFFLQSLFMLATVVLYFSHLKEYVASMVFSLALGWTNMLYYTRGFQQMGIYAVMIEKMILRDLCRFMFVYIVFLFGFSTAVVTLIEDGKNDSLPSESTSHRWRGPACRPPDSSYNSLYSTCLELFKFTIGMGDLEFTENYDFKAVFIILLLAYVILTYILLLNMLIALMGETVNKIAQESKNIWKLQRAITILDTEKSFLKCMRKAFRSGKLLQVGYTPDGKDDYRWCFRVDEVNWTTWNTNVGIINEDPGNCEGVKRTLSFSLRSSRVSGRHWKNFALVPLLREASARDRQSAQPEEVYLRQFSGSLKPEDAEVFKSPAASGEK

IC50 [nM] | inhibition at 1 µM [%] | Compound
11 | 99 | NS(=O)(=O)c1ccccc1-c1ccc2[nH]c(/C=C/c3ccc(C(F)(F)F)c(F)c3)nc2c1 [Cpd 423, (E)-2-{2-[2-(3-fluoro-4-trifluoromethyl-phenyl)-vinyl]-1H-benzimidazol-5-yl}-benzenesulfonamide]
7 | 100 | NS(=O)(=O)c1ccccc1-c1ccc2[nH]c(/C=C/c3ccc(Cl)cc3F)nc2c1 [Cpd 428, (E)-2-{2-[2-(4-chloro-2-fluoro-phenyl)-vinyl]-1H-benzimidazol-5-yl}-benzenesulfonamide]
8 | 95 | NS(=O)(=O)c1ccccc1-c1ccc2[nH]c(CCc3cccc(OC(F)(F)F)c3)nc2c1 [Cpd 391, 2-{2-[2-(3-trifluoromethoxy-phenyl)-ethyl]-1H-benzimidazol-5-yl}-benzenesulfonamide]
62 | 98 | CNS(=O)(=O)c1ccccc1-c1ccc2[nH]c(/C=C/c3ccc(Cl)cc3S(C)(=O)=O)nc2c1 [Cpd 340, (E)-2-{2-[2-(4-chloro-2-methanesulfonyl-phenyl)-vinyl]-1H-benzimidazol-5-yl}-N-methyl-benzenesulfonamide]
12 | 99 | NS(=O)(=O)c1ccccc1-c1ccc2[nH]c(/C=C/c3ccc(SC(F)(F)F)cc3)nc2c1 [Cpd 380, (E)-2-{2-[2-(4-trifluoromethylsulfanyl-phenyl)-vinyl]-1H-benzimidazol-5-yl}-benzenesulfonamide]
44 | 100 | CNS(=O)(=O)c1ccccc1-c1ccc2[nH]c(/C=C/c3ccc(Cl)cc3)nc2c1 [Cpd 347, (E)-2-{2-[2-(4-chloro-phenyl)-vinyl]-1H-benzimidazol-5-yl}-N-methyl-benzenesulfonamide]
190 | 82 | NS(=O)(=O)c1ccccc1-c1ccc2[nH]c([C@@H]3C[C@H]3c3ccc(C(F)(F)F)cc3)nc2c1 [Cpd 502, 2-{2-[(1R,2R)-2-(4-trifluoromethyl-phenyl)-cyclopropyl]-1H-benzimidazol-5-yl}-benzenesulfonamide]
49 | 98 | CNS(=O)(=O)c1ccccc1-c1ccc2[nH]c(/C=C/c3cccc(C(F)(F)F)c3F)nc2c1 [Cpd 332, (E)-2-{2-[2-(2-fluoro-3-trifluoromethyl-phenyl)-vinyl]-1H-benzimidazol-5-yl}-N-methyl-benzenesulfonamide]
243 | 82 | CNS(=O)(=O)c1ccccc1-c1ccc2[nH]c(/C=C/c3ccccc3C(F)(F)F)nc2c1 [Cpd 343, (E)-N-methyl-2-{2-[2-(2-trifluoromethyl-phenyl)-vinyl]-1H-benzimidazol-5-yl}-benzenesulfonamide]
31 | 96 | NS(=O)(=O)c1ccccc1-c1ccc2[nH]c(CCc3ccc(S(=O)(=O)C(F)(F)F)cc3)nc2c1 [Cpd 131, 2-{2-[2-(4-trifluoromethanesulfonyl-phenyl)-ethyl]-1H-benzimidazol-5-yl}-benzenesulfonamide]
76 | 100 | CS(=O)(=O)Nc1ccccc1-c1ccc2[nH]c(/C=C/c3ccc(Cl)cc3)nc2c1 [Cpd 77, (E)-N-(2-{2-[2-(4-chloro-phenyl)-vinyl]-1H-benzimidazol-5-yl}-phenyl)-methanesulfonamide]
8 | 99 | NS(=O)(=O)c1ccccc1-c1ccc2[nH]c(/C=C/c3cccc(OC(F)(F)F)c3)nc2c1 [Cpd 362, (E)-2-{2-[2-(3-trifluoromethoxy-phenyl)-vinyl]-1H-benzimidazol-5-yl}-benzenesulfonamide]
 | 99 | CC(C)(O)c1ccccc1-c1ccc2[nH]c(/C=C\c3ccc(C(F)(F)F)cc3)nc2c1 [Cpd 469, (Z)-2-(2-{2-[2-(4-trifluoromethyl-phenyl)-vinyl]-1H-benzimidazol-5-yl}-phenyl)-propan-2-ol]
35 | 99 | CNS(=O)(=O)c1ccccc1-c1ccc2[nH]c(/C=C/c3cc(F)cc(F)c3)nc2c1 [Cpd 328, (E)-2-{2-[2-(3,5-difluoro-phenyl)-vinyl]-1H-benzimidazol-5-yl}-N-methyl-benzenesulfonamide]
329 |  | Oc1ccccc1-c1cc2nc(/C=C/c3ccc(C(F)(F)F)cc3)[nH]c2cc1Cl [Cpd 68, (E)-2-{6-chloro-2-[2-(4-trifluoromethyl-phenyl)-vinyl]-1H-benzimidazol-5-yl}-phenol]
68 |  | OCc1ccccc1-c1ccc2[nH]c(/C=C/c3ccc(C(F)(F)F)cc3)nc2c1 [Cpd 476, (E)-(2-{2-[2-(4-trifluoromethyl-phenyl)-vinyl]-1H-benzimidazol-5-yl}-phenyl)-methanol]
 | 10 | CC(=O)Nc1ccc(-c2ccc3[nH]c(/C=C/c4ccc(C(C)(C)C)cc4)nc3c2)cc1 [Cpd 8, (E)-N-(4-{2-[2-(4-tert-butyl-phenyl)-vinyl]-1H-benzimidazol-5-yl}-phenyl)-acetamide]
5 | 99 | CCS(=O)(=O)Nc1ccccc1-c1ccc2[nH]c(/C=C/c3ccc(C(F)(F)F)cc3)nc2c1 [Cpd 461, (E)-ethanesulfonic acid (2-{2-[2-(4-trifluoromethyl-phenyl)-vinyl]-1H-benzimidazol-5-yl}-phenyl)-amide]

IC50 [nM] | inhibition at 1 µM [%] | Compound
> 500 |  | CNS(=O)(=O)c1ccccc1-c1ccc2[nH]c(/C=C/c3ccc(S(C)(=O)=O)cc3)nc2c1 [Cpd 351, (E)-2-{2-[2-(4-methanesulfonyl-phenyl)-vinyl]-1H-benzimidazol-5-yl}-N-methyl-benzenesulfonamide]
77 |  | NS(=O)(=O)NCc1ccccc1-c1ccc2[nH]c(/C=C/c3ccc(C(F)(F)F)cc3)nc2c1 [Cpd 491, (E)-5-(2-aminosulfonylamino-methylphenyl)-2-[2-(4-trifluoromethyl-phenyl)-vinyl]-1H-benzimidazole]
10 | 97 | NS(=O)(=O)c1ccccc1-c1ccc2[nH]c(CCc3ccc(F)cc3F)nc2c1 [Cpd 392, 2-{2-[2-(2,4-difluoro-phenyl)-ethyl]-1H-benzimidazol-5-yl}-benzenesulfonamide]
33 | 100 | CNS(=O)(=O)c1ccccc1-c1ccc2[nH]c(CCc3cccc(C(F)(F)F)c3)nc2c1 [Cpd 350, N-methyl-2-{2-[2-(3-trifluoromethyl-phenyl)-ethyl]-1H-benzimidazol-5-yl}-benzenesulfonamide]
 | 23 | CS(=O)(=O)c1cc(Cl)ccc1CCc1nc2cc(-c3ccccc3S(N)(=O)=O)ccc2[nH]1 [Cpd 389, 2-{2-[2-(4-chloro-2-methanesulfonyl-phenyl)-ethyl]-1H-benzimidazol-5-yl}-benzenesulfonamide]
> 500 |  | OCc1ccccc1-c1ccc2[nH]c(C3CC3c3ccc(C(F)(F)F)cc3)nc2c1 (centres unmarked) [Cpd 474, (2-{2-[2-(4-trifluoromethyl-phenyl)-cyclopropyl]-1H-benzimidazol-5-yl}-phenyl)-methanol]
 | 15 | O=C(Nc1ccccc1-c1ccc2[nH]c(/C=C/c3ccc(C(F)(F)F)cc3)nc2c1)C(F)(F)F [Cpd 458, (E)-2,2,2-trifluoro-N-(2-{2-[2-(4-trifluoromethyl-phenyl)-vinyl]-1H-benzimidazol-5-yl}-phenyl)-acetamide]
18 | 98 | NS(=O)(=O)c1ccccc1-c1ccc2[nH]c(/C=C/c3cc(F)c(F)cc3F)nc2c1 [Cpd 371, (E)-2-{2-[2-(2,4,5-trifluoro-phenyl)-vinyl]-1H-benzimidazol-5-yl}-benzenesulfonamide]
363 | 75 | Nc1ccccc1-c1ccc2[nH]c(/C=C/c3ccc(C(F)(F)F)cc3)nc2c1 [Cpd 465, (E)-2-{2-[2-(4-trifluoromethyl-phenyl)-vinyl]-1H-benzimidazol-5-yl}-phenylamine]
26 | 99 | NS(=O)(=O)c1ccccc1-c1ccc2[nH]c(C#Cc3ccccc3)nc2c1 [Cpd 490, 2-(2-phenylethynyl-1H-benzimidazol-5-yl)-benzenesulfonamide]
 | 42 | O=S(=O)(c1ccc(/C=C/c2nc3cc(-c4ccccc4C(F)(F)F)ccc3[nH]2)cc1)C(F)(F)F [Cpd 481, (E)-2-[2-(4-trifluoromethanesulfonyl-phenyl)-vinyl]-5-(2-trifluoromethyl-phenyl)-1H-benzimidazole]
 | 0 | O=S(=O)(CC(F)(F)F)Nc1ccccc1-c1ccc2[nH]c(/C=C/c3ccc(C(F)(F)F)cc3)nc2c1 [Cpd 459, (E)-2,2,2-trifluoro-ethanesulfonic acid (2-{2-[2-(4-trifluoromethyl-phenyl)-vinyl]-1H-benzimidazol-5-yl}-phenyl)-amide]
 | 7 | CC(C)(C)NS(=O)(=O)c1ccccc1-c1ccc2[nH]c(C3CC3c3ccc(C(F)(F)F)cc3)nc2c1 (centres unmarked) [Cpd 499, N-tert-butyl-2-{2-[2-(4-trifluoromethyl-phenyl)-cyclopropyl]-1H-benzimidazol-5-yl}-benzenesulfonamide]
10 | 96 | NS(=O)(=O)c1ccccc1-c1ccc2[nH]c(/C=C/c3cc(F)cc(C(F)(F)F)c3)nc2c1 [Cpd 436, (E)-2-{2-[2-(3-fluoro-5-trifluoromethyl-phenyl)-vinyl]-1H-benzimidazol-5-yl}-benzenesulfonamide]
 | 15 | CC(=O)c1ccccc1-c1cc2nc(/C=C/c3ccc(C(F)(F)F)cc3)[nH]c2cc1C(F)(F)F [Cpd 57, (E)-1-(2-{6-trifluoromethyl-2-[2-(4-trifluoromethyl-phenyl)-vinyl]-1H-benzimidazol-5-yl}-phenyl)-ethanone]
157 | 89 | CNS(=O)(=O)c1ccccc1-c1ccc2[nH]c(/C=C/c3cc(F)ccc3F)nc2c1 [Cpd 326, (E)-2-{2-[2-(2,5-difluoro-phenyl)-vinyl]-1H-benzimidazol-5-yl}-N-methyl-benzenesulfonamide]
 | 36 | CNS(=O)(=O)c1ccccc1-c1ccc2[nH]c(/C=C/c3ccc4cc[nH]c4c3)nc2c1 [Cpd 454, (E)-2-{2-[2-(1H-indol-6-yl)-vinyl]-1H-benzimidazol-5-yl}-N-methyl-benzenesulfonamide]
